In US11813257B2, “Methods of treating erythropoietic protoporphyria, X-linked protoporphyria, or congenital erythropoietic porphyria with glycine transport inhibitors” (Disc Medicine, Inc., priority 2020, dated 2023):

Legend:
Assay type in all cases: cell-based
K562 clone-9 cells [1] = assay: Cell viability and cell count by Vi-CELL XR Complete System in EPP cellular model; conditions: 96 hours, Vi-CELL XR
Method: (§1) 900 μL of K562 clone-9 cells at 2×10^5 cells/mL in IMDM media with 10% FBS and 1% PS were plated into a 24-well plate. After 24-hour incubation, 100 μL of compound in DMSO/media was added in different concentration. The final concentration of DMSO was 0.1%. The compound was incubated for 96 hours at 37° C. Cell viability and cell count were measured by Vi-CELL XR Complete System. Finally, the effect of the compound on PPIX level was determined by flow cytometry.

K562 clone-9 cells [2] = assay: EPP cellular model: PPIX level by flow cytometry after 96 h compound incubation; conditions: for EC50: Homo sapiens, K562 clone-9 cells, 96 hours, flow cytometry, read-out: EPP cellular model (EC50 nM), inhibition of PPIX accumulation
Method: Knockout guide sequences were designed to target Exon3 of the Ferrochelatase gene.
K562 cells were cultured in Iscove's Modified Dulbecco's Medium (IMDM) supplemented with 10% fetal bovine serum (FBS), 1% penicillin/streptomycin (PS). CRISPR Cas9 RNP complex with guide RNA was electroporated in K562 cells. Genomic DNA from the pooled cells was isolated, amplified by PCR and sequenced by Sanger sequencing to determine knockout efficiency. Single-cell clones were isolated by fluorescent-assisted cell sorting (FACS). TA cloning and Sanger sequencing were used to confirm single-cell clones and genotypes. Five clones were selected (Clone IDs are: Clone 1-7; Clone 1-9; Clone 1-10, Clone 1-32; Clone 1-51; and K562 WT) for further characterization by western blot (FIG. 1) to determine FECH protein expression levels (Antibody: FECH Antibody Rabbit Polyclonal, Proteintech, 14466-1-AP) and flow cytometry to determine the PPIX levels (FIG. 2). LC/MS/MS confirmed the accumulation of PPIX in clone 1-9 compared to WT K562 cells (FIG. 3).
as §1

[3] = tested on: human cord blood-CD34+ cells; assay: Human cord blood CD34+ cells transduced with FECH shRNA lentivirus, erythroid differentiation, flow cytometry; conditions: 100 nM, 9 days differentiation
Method: To investigate the effects of GlyT1 inhibitors in human hematopoietic stem cells with an EPP phenotype, lentiviral vectors expressing shRNA of FECH were constructed (Table 4) and transduced at 25 MOI into human cord blood-CD34+ cells purchased from Stemexpress.
Transduced CD34+ cells were differentiated in the presence of Bitopertin (100 nM) or DMSO control into erythroid cells for 9 days in StemSpan SFEM II media supplemented with StemSpan Erythroid Expansion Supplement. The erythroid cell antigen profile was analyzed using cytofluorimetric strategy with the following surface markers: CD71 (PE Mouse Anti-Human CD71, BD Biosciences), glycophoryin A (APC Mouse Anti-Human CD235a, BD Biosciences).

[4] = tested on: clone 1-9 cells (EPP K562 cellular model); assay: LC/MS/MS of 5-ALA, PPIX and heme levels in the EPP K562 cellular model

EC50 (K562 clone-9 cells [2]) [nM]	SMILES	also measured
7	C[C@H](Oc1ccc(S(C)(=O)=O)cc1C(=O)N1CCN(c2ncc(C(F)(F)F)cc2F)CC1)C(F)(F)F [Bitopertin, bitopertin]	effect on cell viability (K562 clone-9 cells [1]): no negative effects on cell viability; effect on erythroid cell surface markers (CD71, glycophoryin A) [3]: no negative effects; reduction of PPIX accumulation ([3]; FECH shRNA transduced CD34+ cells, flow cytometry): 60%; 5-aminolevulinic acid (5-ALA) level [4]: decreased; Heme formation [4]: minimal effect; PPIX level [4]: decreased
14	COc1ccc2c(c1)CC[C@H](CN(C)CC(=O)O)[C@@H]2c1ccccc1 [ORG-25935]	–
306	O=C(N[C@@H](c1ccccc1)[C@@H]1CCCCN1)c1cccc(C(F)(F)F)c1Cl [SSR-504734]	–
46	CN1C[C@@H]2[C@H](C1)[C@H]2CN(Cc1ccc(F)c(Cl)c1)C(=O)c1cn(C)cn1 [PF-03463275]	–
5.6	CN(CC[C@@H](Oc1ccc(C(F)(F)F)cc1)c1ccccc1)CC(=O)O [ORG-24598]	–
4.1	CN(CCOc1ccc(-c2ccc3c(c2)OCO3)cc1C(C)(C)C)CC(=O)O [LY-2365109]	–
0.34	CN(CC[C@@H](Oc1ccc(-c2ccccc2)cc1)c1ccc(F)cc1)CC(=O)O [ALX-5407]	–
> 10000	COc1cc(C(=O)NCC2(N(C)C)CCCC2)cc(OC)c1OCc1ccccc1 [ORG-25543]	inhibition of PPIX accumulation (in words) (K562 clone-9 cells [2]; EPP cellular model, highest tested concentration 10 μM for ORG-25543): did not show any inhibition
